How the values were obtained:
Mus musculus [1] = assay: Range of survival days for antitumor activity against Ip implanted L1210 / 0 lymphoid leukemia in mice at a dose of 400 mg/kg per day after treatment 1;range is 9->45; format: functional; conditions: route intraperitoneal
Mus musculus [2] = assay: Range of survival days for antitumor activity against Ip implanted L1210 / 0 lymphoid leukemia in mice at a dose of 400 mg/kg per day after treatment -1;range is 12->45; format: functional; conditions: route intraperitoneal
Mus musculus [3] = assay: Range of survival days for antitumor activity against Ip implanted L1210 / 0 lymphoid leukemia in mice at a dose of 300 mg/kg per day after treatment 1;range is 18->45; format: functional; conditions: route intraperitoneal
Mus musculus [4] = assay: Survival time of treated mice for antitumor activity against Ip implanted L1210 / 0 lymphoid leukemia in mice at a dose of 400 mg/kg per day after treatment 2;19.5/7; conditions: route intraperitoneal
Mus musculus [5] = assay: Range of survival days for antitumor activity against Ip implanted L1210 / 0 lymphoid leukemia in mice at a dose of 200 mg/kg per day after treatment 1,8,15,22;range is 14->45; format: functional; conditions: route intraperitoneal
Mus musculus [6] = assay: Survival time of treated mice for antitumor activity against Ip implanted L1210 / 0 lymphoid leukemia in mice at a dose of 400 mg/kg per day after treatment 5;14.5/7; conditions: route intraperitoneal
Mus musculus [7] = assay: Increase of life span was determined against Ip implanted L1210 / 0 lymphoid leukemia in mice at a dose of 60 mg/kg per day after treatment 1-5; format: functional; conditions: L1210/0, ip, route intraperitoneal
Mus musculus [8] = assay: Range of survival days for antitumor activity against Ip implanted L1210 / 0 lymphoid leukemia in mice at a dose of 100 mg/kg per day after treatment 1,5,9;range is 18-29; format: functional; conditions: route intraperitoneal
Mus musculus [9] = assay: Increase of life span was determined against Ip implanted L1210 / 0 lymphoid leukemia in mice at a dose of 400 mg/kg per day after treatment 5; format: functional; conditions: L1210/0, ip, route intraperitoneal
Mus musculus [10] = assay: Survival time treated for antitumor activity against Ip implanted L1210 / 0 lymphoid leukemia in mice at a dose of 60 mg/kg per day after treatment 1-5;31/8; conditions: route intraperitoneal
Mus musculus [11] = assay: Survival time treated for antitumor activity against Ip implanted L1210 / 0 lymphoid leukemia in mice at a dose of 300 mg/kg per day after treatment 1;33/7; conditions: route intraperitoneal
Mus musculus [12] = assay: Survival time treated for antitumor activity against Ip implanted L1210 / 0 lymphoid leukemia in mice at a dose of 400 mg/kg per day;>42.5/7; conditions: route intraperitoneal
Mus musculus [13] = assay: Survival time treated for antitumor activity against Ip implanted L1210 / 0 lymphoid leukemia in mice at a dose of 400 mg/kg per day after treatment -1;21.5/7; conditions: route intraperitoneal
Mus musculus [14] = assay: Median survival time for antitumor activity against Ip implanted L1210 / ara-C (I) lymphoid leukemia in mice at a dose of 133 mg/kg per day; conditions: route intraperitoneal
Mus musculus [15] = assay: Range of survival days for antitumor activity against Ip implanted L1210 / ara-C(I) lymphoid leukemia in mice at a dose of 80 mg/kg per day; format: functional; conditions: route intraperitoneal
Mus musculus [16] = assay: Increase of life span was determined against Ip implanted L1210 / ara-C (I) lymphoid leukemia in mice at a dose of 133 mg/kg per day; format: functional; conditions: route intraperitoneal
Mus musculus [17] = assay: Survival time treated for antitumor activity against Ip implanted L1210 / 0 lymphoid leukemia in mice at a dose of 100 mg/kg per day after treatment 1,8,15,22;24/7; conditions: route intraperitoneal
Mus musculus [18] = assay: Survival time treated for antitumor activity against Ip implanted L1210 / 0 lymphoid leukemia in mice at a dose of 200 mg/kg per day after treatment 1;32/7; conditions: route intraperitoneal
Mus musculus [19] = assay: Increase of life span was determined against Ip implanted L1210 / ara-C (II) lymphoid leukemia in mice at a dose of 300 mg/kg per day; format: functional; conditions: route intraperitoneal
Mus musculus [20] = assay: Range of survival days for antitumor activity against Ip implanted L1210 / 0 lymphoid leukemia in mice at a dose of 200 mg/kg per day after treatment 1,15;range is 22-32; format: functional; conditions: route intraperitoneal
Mus musculus [21] = assay: Increase of life span was determined against Ip implanted L1210 / 0 lymphoid leukemia in mice at a dose of 300 mg/kg per day after treatment 1,15; format: functional; conditions: L1210/0, ip, route intraperitoneal
Mus musculus [22] = assay: Range of survival days for antitumor activity against Ip implanted L1210 / 0 lymphoid leukemia in mice at a dose of 400 mg/kg per day after treatment 5;range is 12-16; format: functional; conditions: route intraperitoneal
Mus musculus [23] = assay: Survival time treated for antitumor activity against Ip implanted L1210 / 0 lymphoid leukemia in mice at a dose of 200 mg/kg per day after treatment 1,8,15,22;24.5/7; conditions: route intraperitoneal
Mus musculus [24] = assay: Range of survival days for antitumor activity against Ip implanted L1210 / ara-C (I) lymphoid leukemia in mice at a dose of 133 mg/kg per day; format: functional; conditions: route intraperitoneal
Mus musculus [25] = assay: Increase of life span was determined against Ip implanted L1210 / 0 lymphoid leukemia in mice at a dose of 300 mg/kg per day after treatment 1; format: functional; conditions: L1210/0, ip, route intraperitoneal
Mus musculus [26] = assay: Increase of life span was determined against Ip implanted L1210 / 0 lymphoid leukemia in mice at a dose of 200 mg/kg per day after treatment 1; format: functional; conditions: L1210/0, ip, route intraperitoneal
Mus musculus [27] = assay: Median survival time for antitumor activity against Ip implanted L1210 / ara-C (I) lymphoid leukemia in mice at a dose of 400 mg/kg per day; conditions: route intraperitoneal
Mus musculus [28] = assay: Range of survival days for antitumor activity against Ip implanted L1210 / 0 lymphoid leukemia in mice at a dose of 200 mg/kg per day after treatment 1;range is 24->45; format: functional; conditions: route intraperitoneal
Mus musculus [29] = assay: Median survival time for antitumor activity against Ip implanted L1210 / ara-C (I) lymphoid leukemia in mice at a dose of 80 mg/kg per day; conditions: route intraperitoneal
Mus musculus [30] = assay: Range of survival days for antitumor activity against Ip implanted L1210 / 0 lymphoid leukemia in mice at a dose of 60 mg/kg per day after treatment 1-5;range is 27->45; format: functional; conditions: route intraperitoneal
Mus musculus [31] = assay: Survival time of treated mice for antitumor activity against Ip implanted L1210 / 0 lymphoid leukemia in mice at a dose of 100 mg/kg per day after treatment 1,5,9;25/8; conditions: route intraperitoneal
Mus musculus [32] = assay: Range of survival days for antitumor activity against Ip implanted L1210 / 0 lymphoid leukemia in mice at a dose of 400 mg/kg per day after treatment 0;range is 14->45; conditions: route intraperitoneal
Mus musculus [33] = assay: Range of survival days for antitumor activity against Ip implanted L1210 / 0 lymphoid leukemia in mice at a dose of 400 mg/kg per day after treatment 2;range is 12-26; format: functional; conditions: route intraperitoneal

With `CCCCCCCCCCCCCCCCCCSCC(COP(=O)(O)OP(=O)(O)OC[C@H]1O[C@@H](n2ccc(N)nc2=O)[C@@H](O)[C@@H]1O)OC(=O)CCCCCCCCCCCCCCC` (mixture of isomers) the “Range of survival days” value (Mus musculus [1]) was >9, the “Range of survival days” value (Mus musculus [2]) was >12 and the “Range of survival days” value (Mus musculus [3]) was >18. For the same molecule, the survival time (Mus musculus [4]) was 19.5 days, the “Range of survival days” value (Mus musculus [5]) was >14 and the survival time (Mus musculus [6]) was 14.5 days. For the same molecule, the ILS at 60 mg/kg/day (Mus musculus [7]) was 288%, the “Range of survival days” value (Mus musculus [8]) was 18 and the ILS at 400 mg/kg/day (Mus musculus [9]) was 107%. The survival time (Mus musculus [10]) was 31 days, the survival time (Mus musculus [11]) was 33 days and the survival time (Mus musculus [12]) was > 42.5 days. For the same molecule, the survival time (Mus musculus [13]) was 21.5 days, the median survival time (Mus musculus [14]) was > 45 days and the Range (Mus musculus [15]) was >25. The ILS at 133 mg/kg/day (Mus musculus [16]) was > 350%, the survival time (Mus musculus [17]) was 24 days and the survival time (Mus musculus [18]) was 32 days. The ILS at 300 mg/kg/day (Mus musculus [19]) was 0%, the “Range of survival days” value (Mus musculus [20]) was 22 and the ILS at 300 mg/kg/day (Mus musculus [21]) was 243%. The “Range of survival days” value (Mus musculus [22]) was 12, the survival time (Mus musculus [23]) was 24.5 days and the Range (Mus musculus [24]) was >45. The ILS at 300 mg/kg/day (Mus musculus [25]) was 371%, the ILS at 200 mg/kg/day (Mus musculus [26]) was 357% and the median survival time (Mus musculus [27]) was > 45 days. For the same molecule, the “Range of survival days” value (Mus musculus [28]) was >24, the median survival time (Mus musculus [29]) was > 45 days and the “Range of survival days” value (Mus musculus [30]) was >27. For the same molecule, the survival time (Mus musculus [31]) was 25 days, the “Range of survival days” value (Mus musculus [32]) was >14 and the “Range of survival days” value (Mus musculus [33]) was 12.

— ChEMBL document CHEMBL1124763, “Nucleoside conjugates. 11. Synthesis and antitumor activity of 1-beta-D-arabinofuranosylcytosine and cytidine conjugates of thioether lipids” (1990)
